Reference: paper PMC9404653, “EphA4 targeting agents protect motor neurons from cell death induced by amyotrophic lateral sclerosis -astrocytes” (iScience, 2022)
Where two headings read alike, the source gives them in different places. Non-standard residues stand in square brackets, D forms with d. Residues, ends and D or L forms follow the SMILES beside them. *: point of attachment. Cyclohexanoyl(1S,3S-3-NH2) = N[C@H]1CCC[C@H](C(=O)*)C1; Trp(5-OH) = N[C@@H](Cc1c[nH]c2ccc(O)cc12)C(=O)O; NH(4-morpholinophenyl) = c1cc(N2CCOCC2)ccc1N*; Bip = N[C@@H](Cc1ccc(-c2ccccc2)cc1)C(=O)O; hArg = N=C(N)NCCCC[C@H](N)C(=O)O; X1 = c1cc(N2CCNCC2)ccc1N*

B1: ephrinA4: intact ephrin ligand of EphA4 (protein, UniProt P52798 26-170, looked up)
Ephrin-A4: LRHVVYWNSSNPRLLRGDAVVELGLNDYLDIVCPHYEGPGPPEGPETFALYMVDWPGYESCQAEGPRAYKRWVCSLPFGHVQFSEKIQRFTPFSLGFEFLPGETYYYISVPTPESSGQCLRLQVSVCCKERKSESAHPVGSPGES
B2: ephrinA5: intact ephrin ligand of EphA4 (protein, UniProt P52803 21-203, looked up)
Ephrin-A5: QDPGSKAVADRYAVYWNSSNPRFQRGDYHIDVCINDYLDVFCPHYEDSVPEDKTERYVLYMVNFDGYSACDHTSKGFKRWECNRPHSPNGPLKFSEKFQLFTPFSLGFEFRPGREYFYISSAIPDNGRRSCLKLKVFVRPTNSCMKTIGVHDRVFDVNDKVENSLEPADDTVHESAEPSRGEN

Key:
[1] = biological target: T1, EphA4 ligand-binding domain (Homo sapiens, UniProt P54764); assay: Isothermal titration calorimetry (ITC) vs EphA4-LBD; settings: for N (ITC stoichiometry): ITC curve, Figure 2C/2D; for Kd: ITC, 25°C, 25 mM Tris pH 7.5, 150 mM NaCl, 1% DMSO, mean ± SE, n = 2
Protocol: (§1) Previously, we deployed the HTS by NMR (High-throughput Screening by Nuclear Magnetic Resonance) approach targeting the EphA4 ligand-binding domain to identify possible ligands from a tri-peptide positional scanning library consisting of ∼125,000 agents ([Wu et al., 2013]). Initial screen and subsequent structure-activity relationships studies lead to agent 123C4 (Table 1), with an affinity for the isolated EphA4 ligand-binding domain (LBD) of ∼400 nM by isothermal titration calorimetry (ITC) ([Wu et al., 2013], [2017]). In follow-up studies, we derived a new combinatorial library based on the critical N-terminal aliphatic amine of 123C4 (a common feature also of antagonistic peptides) ([Olson et al., 2016]; [Wu et al., 2013]) and exploited our previous experience with the fHTS by NMR ([Baggio et al., 2017]), we rapidly identified a new hit molecule ([Baggio et al., 2021]). We also developed an efficient strategy to anticipate if ligand binding would induce changes in EphA4 conformation that are more compatible with agonist versus antagonist binding ([Baggio et al., 2021]). This was accomplished by protein NMR using EphA4-LBD that is uniformly labeled with ^13C^ε-methionine ([Wu et al., 2017]). […] In particular, EphA4 residues Met 164, Met 60 (in the binding site), and Met 115 are located in the D-E loop, J-K loop, and G-H loop of the EphA4-LBD, respectively (Figures 1A-1C). […] For example, we reported that the 13mer antagonistic cyclic peptide APY-d3 ([Olson et al., 2016]) induces changes not only in binding site Met 164 and Met 60 resonances, but also in Met 115, located in the G-H loop, that is at the EphA4-LBD dimerization interface (Figure 1D). […] With these considerations in mind, ligand 150D4 was previously derived as described in our recent studies (Table 1; [Baggio et al., 2021]). […] Dissociation constant determination was obtained via isothermal titration calorimetry (ITC) measurements (Table 1, Figure 2). Similarly, selectivity studies were performed via ITC and ligand-binding domain constructs representing the two most closely related Eph domains, namely EphA3 and EphA2 (Table 1). […] These studies culminated in the identification of agonistic agents targeting the EphA4 ligand-binding domain.
Isothermal titration calorimetry measurements were performed using the Affinity ITC Autosampler from TA Instruments (New Castle, DE). The titrations were performed in a reverse fashion by titrating the protein into the ligand solution. […] Each titration was performed twice and individually using the ITCRun software, analyzed using NanoAnalyze software (TA Instruments, New Castle, DE) and subsequently exported into Microsoft Excel. […]

EphA4-LBD = biological target: T2, EphA4-LBD (Homo sapiens, UniProt P54764); assay: 2D [13C,1H] NMR chemical shift perturbation of 13Cε-Met labeled EphA4-LBD; type: binding; settings: for Chemical shift perturbation to Met 115 (G-H loop): 13Cε-Met labeled EphA4-LBD; for Δδ Met 60 / Δδ Met 164: weight average 1H/13C chemical shift perturbation, 20 μM EphA4-LBD, 298 K
T2 construct: Met labeled EphA4-LBD (29-209) (20 μM) in absence (blue)
Protocol: as §1
NMR spectra were acquired on Bruker Avance III 700MHz spectrometer equipped with a TCI cryoprobe. All NMR data were processed and analyzed using TOPSPIN 3.6.1 (Bruker, Billerica, MA, USA). 2D-[^13C,^1H]-HSQC experiments were acquired with 20 μM proteins using 16 scans with 2,048 and 256 complex data points in the ^1H and […] dimensions, respectively, at 298 K. Chemical shift changes (Δδ) in the 2D [^13C, ^1H] spectra were calculated as weight average perturbations observed in the ^1H and ^13C dimensions using the following Equation: Δδ=1/2∗[(Δ^1H)^2+(0.3∗Δ^13C)^2]

[2] = test system: motor neurons co-cultured with patient iAstrocytes (sALS, mutant SOD1); assay: Patient iAstrocyte:motor neuron co-culture, motor neuron survival; settings: 10 μM, sALS patient iAs (ALS1; second patient line Figure S3)
Protocol: Here, we tested the effectiveness of synthetic agonists by co-culturing patient iAs (2 sALS and 3 mtSOD1, Sup. Table 1) and mouse motor neurons in the presence of 123C4 (Figure 5A). Three days following co-culture surviving motor neurons were imaged (Figure 5B).
At the time of motor neuron seeding, the drug was removed via aspiration, and motor neurons in freshly prepared media were cultured on the iAs monolayer. In addition, 123C4 was also added at the time of co-culture as described in Figure 5A.
To accommodate a compound screen of this size, co-culture assays were adapted to a 384 well format.
Induced Astrocytes were generated by seeding a low quantity of NPCs into astrocyte medium (DMEM media containing 10% FBS and 0.2% N2) for five days. Following differentiation, iAstrocytes were lifted and seeded into a 96 well (10,000 cells per well) or 384 well (2500 cells per well) plate. Differentiations were repeated at separate passages and each differentiation was counted as an independent experiment.
Cells are sorted through a 100 μm tip with sheath pressure of 27. GFP + motor neurons were seeded in a 96 well plate (10,000 cells per well) or 384 well (1,000 cells per well) in triplicate for each condition. Co-cultures were imaged with InCell Analyzer 6000 automated microscopy system for up to six days. […]

[3] = Aqueous solubility by 1H NMR; type: physicochemical; settings: water; determined by 1H NMR
[4] = biological target: ephrinA4 or ephrinA5 (Homo sapiens) (UniProt P52803); settings: cited from earlier work
[5] = biological target: T1, EphA4 ligand-binding domain; settings: ref Bowden et al., 2009a, 2009b, read-out: Affinity of intact ephrin ligands for EphA4; cited from earlier work

T1 sequence (P54764 30-209 limits assumed): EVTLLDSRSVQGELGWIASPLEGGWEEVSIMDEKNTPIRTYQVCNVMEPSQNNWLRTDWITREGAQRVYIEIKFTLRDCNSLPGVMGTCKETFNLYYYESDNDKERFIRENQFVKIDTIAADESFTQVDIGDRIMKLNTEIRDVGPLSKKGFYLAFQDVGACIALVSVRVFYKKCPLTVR
T2 sequence (P54764 29-209): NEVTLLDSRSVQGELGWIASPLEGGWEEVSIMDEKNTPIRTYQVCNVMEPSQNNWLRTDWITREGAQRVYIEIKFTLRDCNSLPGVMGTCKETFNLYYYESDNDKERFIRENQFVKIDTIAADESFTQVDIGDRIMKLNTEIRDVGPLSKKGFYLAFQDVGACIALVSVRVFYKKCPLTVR

Molecule | N (ITC stoichiometry) [1] | Kd [1] | Chemical shift perturbation to Met 115 (G-H loop) (EphA4-LBD) | Δδ Met 60 (EphA4-LBD) | Δδ Met 164 (EphA4-LBD) | Motor neuron survival [2] | solubility [3] | Kd [4] | Kd [5]
C[C@@H](NC(=O)[C@H](CCCCNC(=N)N)NC(=O)[C@H](Cc1ccc(-c2ccccc2)cc1)NC(=O)[C@H](Cc1c[nH]c2ccc(O)cc12)NC(=O)[C@H]1CCC[C@H](N)C1)C(=O)Nc1ccc(N2CCOCC2)cc1 [150E7, (1S,3S)-N-((S)-1-(((S)-3-([1,1'-biphenyl]-4-yl)-1-(((S)-6-guanidino-1-(((R)-1-((4-morpholinophenyl)amino)-1-oxopropan-2-yl)amino)-1-oxohexan-2-yl)amino)-1-oxopropan-2-yl)amino)-3-(5-hydroxy-1H-indol-3-yl)-1-oxopropan-2-yl)-3-aminocyclohexane-1-carboxamide] ({Cyclohexanoyl(1S,3S-3-NH2)}-[Trp(5-OH)][Bip][hArg][dA]-{NH(4-morpholinophenyl)}) | 0.99 | 129 ± 4.5 nM | do not alter loop G-H | +++ (+++ > 0.1 ppm) | ++ (0.2 ppm < ++ < 0.25 ppm) | effective at preventing motor neuron death | > 50 mM | – | –
N=C(N)NCCCC[C@H](NC(=O)[C@H](Cc1ccc(-c2ccccc2)cc1)NC(=O)[C@H](Cc1c[nH]c2ccc(O)cc12)NC(=O)[C@H]1CCC[C@H](N)C1)C(=O)NCC(=O)Nc1ccc(N2CCNCC2)cc1 [150E8, (1S,3S)-N-((S)-1-(((S)-3-([1,1'-biphenyl]-4-yl)-1-(((S)-6-guanidino-1-oxo-1-((2-oxo-2-((4-(piperazin-1-yl)phenyl)amino)ethyl)amino)hexan-2-yl)amino)-1-oxopropan-2-yl)amino)-3-(5-hydroxy-1H-indol-3-yl)-1-oxopropan-2-yl)-3-aminocyclohexane-1-carboxamide] ({Cyclohexanoyl(1S,3S-3-NH2)}-[Trp(5-OH)][Bip][hArg]G-X1) | 1.01 | 94.3 ± 4.4 nM | do not alter loop G-H | ++ (0.05 ppm < ++ < 0.1 ppm) | ++++ (++++ > 0.3 ppm) | effective at preventing motor neuron death | > 50 mM | – | –
EphA4 ligand-binding domain (from UniProt P54764) | – | – | – | – | – | – | – | 360 nM | –
B1 | – | – | – | – | – | – | – | – | ~360 nM
B2 | – | – | – | – | – | – | – | – | ~360 nM
